Assays:
[1] = test system: SW837 xenograft; assay: Colorectal adenocarcinoma SW837 xenograft model, tumor volume; assay type: in vivo, BALB/c nude mice; conditions: 30 mg/kg oral once daily vs AMG510 at 60 mg/kg; FIG. 1
Protocol: All the procedures related to animal handling, care and the treatment in this study were performed according to the guidelines approved by the Institutional Animal Care and Use Committee (IACUC) of SIPPER B&K following the guidance of the Association for Assessment and Accreditation of Laboratory Animal Care (AAALAC). At the time of routine monitoring, the animals were checked for any effects of tumor growth on normal behavior such as mobility, food and water consumption (by looking only), body weight gain/loss (body weights were measured twice weekly), eye/hair matting and any other abnormal effect. Death and observed clinical signs were recorded on the basis of the numbers of animals within each subset.
The NCI-H358, SW837, NCI-H2122 tumor cells were purchased from the American Type Culture Collection (ATCC). Cells were maintained in vitro as monolayer cultured in RPMI-1640 or DMEM medium supplemented with 10% fetal bovine serum, 50 IU/ml penicillin/streptomycin (GIBCO) at 37° C. in an atmosphere of 5% CO2 in air. The tumor cells were routinely sub cultured twice weekly by trypsin-EDTA treatment. The cells growing in an exponential growth phase were harvested and counted for tumor inoculation.
For tumor bearing models, female 6- to 8-week-old athymic BALB/c nude mice were used for human cancer cell lines. Each mouse was inoculated subcutaneously at the right flank with tumor cells (10×10^6) in 0.1 ml of PBS. The treatments were started when the average tumor size reached approximately 200-250 mm^3. Carboplatin, Cisplatin was injected twice a week by i.p. Vehicles and other test articles were given orally as a suspension by gavage once daily during the study or treatment period.
Tumor volume was calculated by measuring two perpendicular diameters using the following formula: (L×W 2)/2 in which L and W refer to the length and width tumor diameter, respectively. Results are expressed as mean and standard deviation of the mean.

[2] = Human hepatocyte clearance study; assay type: in vitro ADME; conditions: human, pooled cryopreserved human hepatocytes (suspension), working cell density 2 × 10^6 viable cells/mL
Protocol: (§1) The in vitro human hepatocyte clearance of compounds described here was studied using pooled human hepatocytes purchased from BioreclamationIVT (Westbury, NY, Cat #X008001, Lot #TQJ). The assay was conducted according to manufacturer's instruction. Briefly, 10 mM stock solutions of test compounds and positive control (Verapamil) were prepared in 100% DMSO. Thawing media (50 mL) used in the study consists of 31 mL Williams E medium (GIBCO Cat #12551-032), 15 mL isotonic percoll (GE Healthcare Cat #17-0891-09), 500 uL 100× GlutaMax (GIBCO Cat #35050), 750 uL HEPES (GIBCO Cat #15630-080), 2.5 mL FBS (Corning Cat #35-076-CVR), 50 uL human insulin (GIBCO Cat #12585-014) and 5 uL dexamethasone (NICPBP). Incubation media is made of Williams E medium supplemented with 1× GlutaMax. Both thawing medium and incubation medium (serum-free) were placed in a 37° C. water bath for at least 15 minutes prior to use. Compound stock solutions were diluted to 100 μM by combining 198 μL of 50% acetonitrile/50% water and 2 μL of 10 mM stock solution. Verapamil was use as positive control in the assay. Vials of cryopreserved hepatocytes were removed from storage and thawed in a 37° C. water bath with gentle shaking. Contents of the vial were poured into the 50 mL thawing medium conical tube. Vials were centrifuged at 100 g for 10 minutes at room temperature. […] […] […] The boiled hepatocytes were used to prepare negative samples. Aliquots of 198 μL hepatocytes were dispensed into each well of a 96-well non-coated plate. The plate was placed in the incubator on an orbital shaker at 500 rpm for approximately 10 minutes. Aliquots of 2 μL of the 100 μM test compound or positive control were added into respective wells of the non-coated 96-well plate to start the reaction. This assay was performed in duplicate. The plate was incubated in the incubator on an orbital shaker at 500 rpm for the designated time points. Twenty-five microliter of contents were transferred and mixed with 6 volumes (150 μL) of cold acetonitrile with IS (200 nM imipramine, 200 nM labetalol and 200 nM diclofenac) to terminate the reaction at time points of 0, 15, 30, 60, 90 and 120 minutes. Samples were centrifuged at 3,220 g for 25 minutes and aliquots of 150 μL of the supernatants were used for LC-MS/MS analysis. For data analysis, all calculations were carried out using Microsoft Excel. Peak areas were determined from extracted ion chromatograms. The in vitro half-life (t1/2) of parent compound was determined by regression analysis of the percent parent disappearance vs. time curve. […] Scaling factors for in vivo intrinsic clearance prediction using human hepatocytes are listed as: liver weight (g liver/kg body weight): 25.7; hepatocyte concentration (10^6 cells/g liver): 99; scaling factor: 2544.3.

[3] = test system: pooled human hepatocytes; assay: Human hepatocyte clearance study; assay type: in vitro ADME
Protocol: as §1

C=CC(=O)N1C[C@H](C)N(c2nc(=O)n(-c3c(C4CC4)ncnc3C3CC3)c3nc(-c4c(N)cccc4F)c(Cl)cc23)C[C@H]1C [Compound 126]
reducing tumor volume compared with AMG510 [1]: more effective than AMG510
hepatocyte CLint at 1 µM ([2]; read-out: Human In vitro Clint (μl/min/10^6 cells)): 6.6 µL/min/1e6 cells
half-life at 1 µM ([2]; read-out: Human In vitro T1/2): 104 min
CLint scaled at 1 µM ([2]; read-out: Human Scale-up Clint): 17 mL/min/kg
human hepatocyte clearance profile compared to control compounds [3]: better human hepatocyte clearance profile
Human Hepatocyte Remaining Percentage @ 120 min (%) ([3]; working cell density 2 × 10^6 viable cells/mL): 47.8%
